Measurements reported in article PMC7584369, “Di-bromo-Based Small-Molecule Inhibitors of the PD-1/PD-L1 Immune Checkpoint” (Journal of Medicinal Chemistry, 2020).
Values joined by “and” are separate entries in the source; they are usually repeats but may differ in a detail not shown here. Identical values can stand only once. “Also recorded” adds a separate entry of the source. Counter-ions that a name gives are not always drawn.

Experiments:
[1] = biological target: T1, PD-1/PD-L1 complex (hPD-L1 and hPD-1) (Homo sapiens, UniProt Q9NZQ7); assay: Homogeneous time-resolved fluorescence (HTRF) assay, Cis-Bio kit; assay type: binding
T1 construct: purchased Cis-Bio
T1 sequence (Q9NZQ7 19-238 limits assumed, one chain of several): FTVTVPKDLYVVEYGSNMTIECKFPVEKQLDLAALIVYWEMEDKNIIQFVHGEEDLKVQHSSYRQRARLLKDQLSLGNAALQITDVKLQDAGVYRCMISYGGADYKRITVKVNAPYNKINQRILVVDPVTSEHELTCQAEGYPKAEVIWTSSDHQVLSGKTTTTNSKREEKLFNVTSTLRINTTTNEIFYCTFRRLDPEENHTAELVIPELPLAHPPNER

murine PD-L1 = biological target: T2, murine PD-L1 (Mus musculus, UniProt Q9EP73); assay: MicroScale Thermophoresis (MST) binding assay, murine PD-L1; conditions: mPD-L1
T2 construct: mPD-L1 residues, 19–134; made in house; host or cells: Escherichia coli BL21 (DE3)
T2 sequence (Q9EP73 19-134): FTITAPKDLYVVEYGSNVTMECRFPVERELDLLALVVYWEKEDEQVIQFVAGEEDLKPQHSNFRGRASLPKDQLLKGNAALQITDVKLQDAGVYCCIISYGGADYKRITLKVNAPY

[2] = biological target: T3, hPD-1/hPD-L1 immune checkpoint (hPD-L1 aAPCs and Jurkat hPD-1 effector cells) (Homo sapiens, UniProt Q9NZQ7); assay: hPD-1/hPD-L1 immune checkpoint blockade cell-based assay (Promega Blockade Bioassay)
T3 construct: host or cells: CHO K-1 (hPD-L1 aAPCs) and Jurkat T cells (hPD-1 effector cells)
T3 sequence (Q9NZQ7 19-290): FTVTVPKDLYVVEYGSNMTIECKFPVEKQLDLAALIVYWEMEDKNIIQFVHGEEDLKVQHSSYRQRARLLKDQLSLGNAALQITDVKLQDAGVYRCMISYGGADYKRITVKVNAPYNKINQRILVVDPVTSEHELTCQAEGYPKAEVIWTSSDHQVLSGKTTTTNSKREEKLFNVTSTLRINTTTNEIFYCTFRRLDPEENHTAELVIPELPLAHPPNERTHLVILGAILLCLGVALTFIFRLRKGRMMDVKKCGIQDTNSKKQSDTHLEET

human PD-L1 [3] = biological target: T4, human PD-L1 (Homo sapiens, UniProt Q9NZQ7); assay: 1H NMR binding assay; conditions: molar ratio 1:1
T4 construct: hPD-L1 residues, 18–134, C-terminal His-tag; His-tag (C); made in house; host or cells: Escherichia coli BL21 (DE3)
T4 sequence (Q9NZQ7 18-134): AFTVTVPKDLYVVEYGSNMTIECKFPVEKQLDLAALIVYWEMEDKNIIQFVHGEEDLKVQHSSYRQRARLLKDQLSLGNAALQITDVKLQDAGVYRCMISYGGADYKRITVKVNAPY
Protocol: The direct binding of the most prominent compounds 2k and 3d to the human PD-L1 was also confirmed with a ^1H NMR method (Figure S3).
Figure S2 ELISA assay results.
High-binding 96 well plates (Thermo Scientific, cat. 439454) were coated with 1.2 μg/ml (50 μL/well) of Fc-tagged human PD-1 (Recepton Sp. z o.o., cat. R1-001-1) and incubated overnight at 4 ◦C. The plates were warmed to room temperature, washed with wash buffer (1 x PBS, 0.05% Tween 20, pH 7.4) and blocked with 1 % BSA in 1 x PBS, pH 7.4 for 2 h. Standard curve was generated with 0.02 – 50 ug/mL His- and Fc- tagged human PD-L1 (Recepton Sp. z o.o., cat. R1-002-1). […] The bound ligand was detected with the addition of 50 μL/well biotinylated Anty-His antibody (Southern Biotech, cat. 4603-08) followed by 1 h incubation, wash steps and addition of 50 μL/well streptavidin-HRP (Thermo Scientific, cat. 21126). […] The absorbance readings were made on Tecan Spark at the wavelength 450 nm and the reference wavelength 655 nm. IC50 was calculated based on the Δ((A450-A655) from sample – (A450-A655) from background) readings fitted in the plot using a Hill’s […]
For NMR measurements, the buffer was exchanged by gel filtration to PBS pH 7.4. […] All spectra were recorded at 300 K using a Bruker Avance III 600 MHz spectrometer. […]

N66A-PD-1/PD-L1 complex = biological target: T5, N66A-PD-1/PD-L1 complex (Homo sapiens, UniProt Q9NZQ7); assay: w-AIDA-NMR (weak antagonist-induced dissociation assay); assay type: binding; conditions: equimolar concentrations
T5 construct: hPD-L1 residues, 18–134, C-terminal His-tag; His-tag (C); made in house; host or cells: Escherichia coli BL21 (DE3)
T5 sequence (Q9NZQ7 18-134, stated change not applied, one chain of several): as the sequence (Q9NZQ7 18-134) above
From the text: Because HTRF is prone to “false positives”, especially aggregators and autofluorophores, we validated the results using the w-AIDA-NMR assay developed by us. […] In the w-AIDA-NMR 2D experiment, ^15N mutated PD-1 gives a characteristic pattern of peaks (Figure 2A). Peak assignment is not necessary as we observe a relative change in the intensity and positions of the reference peaks upon the addition of ligand/inhibitors. Upon the formation of the complex with PD-L1, most of the cross-peaks in the ^1H–^15N HMQC spectrum of PD-1 became broader and less intense with some of the cross-peaks disappearing (Figure 2B). If the inhibitor is capable of disrupting the complex, the resulting spectrum should come back to the reference one of PD-1 alone, as tested inhibitors are PD-L1 binders. […]
Uniform ^15N labeling was obtained by expressing proteins in the M9 minimal medium containing ^15NH4Cl as the sole nitrogen source. […] All spectra were recorded at 300 K using a Bruker Avance III 600 MHz spectrometer equipped with the nitrogen cryoprobe. The ability of tested compounds to dissociate PD-L1/(wild type, wt or N66A)PD-1 was evaluated using the (weak) antagonist-induced dissociation assay (w-AIDA-NMR). […] During the experiment, the ^1H–^15N signals were monitored by SOFAST HMQC.

wtPD-1/PD-L1 complex = biological target: T6, wtPD-1/PD-L1 complex (Homo sapiens, UniProt Q9NZQ7); assay: AIDA-NMR with wild-type proteins; assay type: binding; conditions: wild-type PD-1
T6 construct: hPD-L1 residues, 18–134, C-terminal His-tag; His-tag (C); made in house; host or cells: Escherichia coli BL21 (DE3)
T6 sequence (Q9NZQ7 18-134, one chain of several): as the sequence (Q9NZQ7 18-134) above

primary human T cells = assay: Flow cytometry of activation markers on primary T cells (PBMCs on hPD-L1 aAPCs); assay type: cell-based; conditions: 48 h
Protocol: The biological activity of the compound 2k was further verified on the primary T cells. For this, peripheral blood mononuclear cells (PBMCs) isolated from the blood of healthy donors were contacted with hPD-L1 aAPCs to provide TCR-mediated activation of T cells and the engagement of PD-1/PD-L1 immune checkpoint. The cells were then analyzed with flow cytometry following the gating for CD4^+ and CD8^+ T cells. The blockade of the PD-1/PD-L1 immune checkpoint was expected to increase the activation of T cells. In the experiment, atezolizumab and compound 2k were used. […] Because the prolonged activation of T cells leads to the increase of the expression of immune checkpoint molecules,[30] we have monitored the expression of PD-1 protein itself as an indicator of the late T cell activation and exhaustion. […] This confirms the bioactivity of the compound 2k in the context of primary T cells.
Blood samples from healthy donors were purchased from the Regional Center of Blood Donation and Blood Therapy in Krakow. PBMCs were isolated by a density gradient centrifugation using Pancoll human separating solutions (PAN-Biotech) and then resuspended in RPMI 1640 medium (Biowest) containing 10% FBS (Biowest).
PBMCs were added to the preseeded aAPCs at the density of 400 000 cells/well and incubated in the presence of compound 2k, DMSO, and with or without atezolizumab (5 μg/mL) as an anti-PD-L1 monoclonal antibody. After 48 h, cells were detached using TrypLe Select Enzyme (Thermo Fisher Scientific), collected into 5 mL round-bottom tubes, and washed with flow cytometry staining buffer (Thermo Fisher Scientific). For flow cytometry analysis, cells were stained using monoclonal antibodies: anti-CD69-APC, anti-CD4-FITC, anti-CD8-BV510, and anti-PD1-PECy7 (Becton Dickinson, BD). Following 20 min of incubation at room temperature, cells were washed, resuspended in PBS, and analyzed using a FACSCanto II flow cytometer (BD) and FACSDiva software (BD). The data analysis was carried out with FACSuite software (BD).

human PD-1/PD-L1 complex = biological target: T7, human PD-1/PD-L1 complex (Homo sapiens, UniProt Q9NZQ7); assay: Competitive ELISA; assay type: binding; conditions: dissociation of human PD-1/PD-L1 complex
T7 construct: Fc; purchased Recepton Sp. z o.o; R1-002-1 (PD-L1); R1-001-1 (PD-1)
T7 sequence (Q9NZQ7 19-238 limits assumed, one chain of several): as the sequence (Q9NZQ7 19-238 limits assumed, one chain of several) above

[4] = tested on: Jurkat PD-1 Effector Cells alone or in co-culture with CHO K-1 PD-L1 aAPCs; assay: Cytotoxicity / cell viability assay (tetrazolium reagent); assay type: cell-based; conditions: not toxic up to the stated final concentration
human PD-L1 [5] = biological target: T4, human PD-L1; assay: MicroScale Thermophoresis (MST) binding assay, human PD-L1; conditions: hPD-L1

OCc1cccc(-c2ccccc2)c1-c1ccccc1 [1b, [1,1′:2′,1″-terphenyl]-3′-ylmethanol]
IC50 [1]: > 100000 nM

O=C(NCCCN1CCOCC1)c1ccc(OCc2cccc(-c3ccccc3)c2Br)c(Br)c1 [2f, 4-(3-(3-Bromo-4-((2-bromo-[1,1′-biphenyl]-3-yl)methoxy)benzamido)propyl)morpholin-4-ium Hydrochloride]
IC50 [1]: 13200 ± 150 nM

Cc1c(COc2cc(OCc3cccc(C#N)c3)c(CN3C[C@H](O)C[C@@H]3C(=O)O)cc2Cl)cccc1-c1ccc2c(c1)OCCO2 [BMS-1166, reference compound]
MST KD (murine PD-L1): no activity

COc1cc(CN2CCCC[C@H]2C(=O)O)ccc1OCc1cccc(-c2ccccc2)c1Br [2j, (S)-1-(4-((2-Bromo-[1,1′-biphenyl]-3-yl)methoxy)-3-methoxybenzyl)piperidine-2-carboxylic Acid]
IC50 [1]: 204 ± 6.4 nM
EC50 ([2]; cell based assay, Table S1): > 500000 nM

N#Cc1cc(COc2cc(OCc3cccc(-c4ccccc4)c3Br)c(Cl)cc2CN2C[C@@H](O)C[C@H]2C(=O)O)ccn1 [3d]
direct binding to hPD-L1 (1H NMR) (human PD-L1 [3]): caused flattening of 2D spectra characteristic for the dimerization; also recorded: caused a characteristic dimerization of hPD-L1
solubility in DMSO/water conditions ([2]; disallowed data collection for the two highest concentrations): solubility problems

BrCc1cccc(-c2ccccc2)c1Br [1a, 2-bromo-3-(bromomethyl)-1,1′-biphenyl]
dissociation of the mutant N66A-PD-1/PD-L1 complex (N66A-PD-1/PD-L1 complex): capable of dissociating; also recorded: all PD-1 peaks are restored; also recorded: dissociated
dissociation of the wtPD-1/PD-L1 complex (wtPD-1/PD-L1 complex): not able to dissociate

OCc1cccc(-c2ccccc2)c1F [1c]
dissociation of the mutant N66A-PD-1/PD-L1 complex (N66A-PD-1/PD-L1 complex): capable of dissociating; also recorded: all PD-1 peaks are restored; also recorded: dissociated
dissociation of the wtPD-1/PD-L1 complex (wtPD-1/PD-L1 complex): not potent enough to dissociate

Durvalumab: a clinically relevant PD-L1-blocking antibody; positive control anti-hPD-L1 monoclonal antibody [reference compound]
EC50 ([2]; reference antibody, Hill fit): 0.2 ± 0.06 nM

atezolizumab: an anti-PD-L1 therapeutic antibody [reference compound]
expression of PD-1 receptor on the surface of CD4+ and CD8+ T cells (primary human T cells): significant increase
expression of early T-cell activation marker CD69 (primary human T cells): Neither of the two molecules was able to increase

O=C(O)[C@@H]1CCCCN1Cc1ccc(OCc2cccc(-c3ccccc3)c2Br)c(Br)c1 [2k, (S)-1-(3-Bromo-4-((2-bromo-[1,1′-biphenyl]-3-yl)methoxy)benzyl)piperidine-2-carboxylic Acid]
dissociation of the wtPD-1/PD-L1 complex (wtPD-1/PD-L1 complex): dissociated
IC50 (human PD-1/PD-L1 complex): 1.47 ± 0.05 nM
direct binding to hPD-L1 (1H NMR) (human PD-L1 [3]): caused flattening of 2D spectra characteristic for the dimerization; also recorded: caused a characteristic dimerization of hPD-L1
level of the Jurkat T cell activation ([2]; at a 50 μM concentration): 2.1 fold
toxic concentration in cell viability assay [4]: > 100 µM
expression of PD-1 receptor on the surface of CD4+ and CD8+ T cells (primary human T cells): significant increase
expression of early T-cell activation marker CD69 (primary human T cells): Neither of the two molecules was able to increase
Kd (human PD-L1 [5]): 4.04 nM and 4 nM
MST KD (murine PD-L1): no activity

O=C(O)[C@@H]1C[C@H](O)CN1Cc1ccc(OCc2cccc(-c3ccccc3)c2-c2ccccc2)c(Br)c1 [4f, (2S,4S)-1-(4-([1,1′:2′,1″-Terphenyl]-3′-ylmethoxy)-3-bromobenzyl)-4-hydroxypyrrolidine-2-carboxylic Acid]
IC50 [1]: 49100 ± 150 nM

CC(=O)NCCNCc1ccc(OCc2cccc(-c3ccccc3)c2Br)c(Br)c1 [2g, N-(2-((3-Bromo-4-((2-bromo-[1,1′-biphenyl]-3-yl)methoxy)benzyl)amino)ethyl)acetamide]
IC50 [1]: 12.2 ± 0.2 nM
toxicity of the compound observed above concentration ([2]; EC50 estimated on partial data because of it): above 10 μM
EC50 ([2]; cell based assay, Table S1): 6700 ± 1100 nM
Kd (human PD-L1 [5]): 3.17 nM and 3.2 nM
MST KD (murine PD-L1): no activity

Cc1cc(CN2CCCC[C@H]2C(=O)O)ccc1OCc1cccc(-c2ccccc2)c1Br [2i, (S)-1-(4-((2-Bromo-[1,1′-biphenyl]-3-yl)methoxy)-3-methylbenzyl)piperidine-2-carboxylic Acid]
MST KD (murine PD-L1): no activity

N#Cc1ccc(-c2cccc(COc3ccc(C=O)cc3Br)c2Br)cc1 [4g, 2′-Bromo-3′-((2-bromo-4-formylphenoxy)methyl)-[1,1′-biphenyl]-4-carbonitrile]
IC50 [1]: 29400 ± 450 nM

O=C(O)[C@@H]1CCCCN1Cc1ccc(OCc2cccc(-c3ccccc3)c2Br)cc1 [2h, (S)-1-(4-((2-Bromo-[1,1′-biphenyl]-3-yl)methoxy)benzyl)piperidine-2-carboxylic Acid]
IC50 [1]: 522 ± 0.5 nM
